Data as given in article PMC10008561 (Nature Communications, 2023).
Several values for one entry are separate records, joined by “and”; a condition that tells them apart may be missing. Identical values can stand only once.

Columns and labels:
[1] = ref Liu et al., Neuropsychopharmacology, 2018, Abraham et al., cited from earlier work
human KOR (Gustducin) [2] = target: T1, human KOR (Gustducin) (Homo sapiens, UniProt P41145, E297A); assay: cell-based; conditions: HEK-293T
T1 construct: expressed in transfected cells; host or cells: HEK293T

human KOR (Gustducin) [3] = target: T2, human KOR (Gustducin) (Homo sapiens, UniProt P41145, T94V); assay: cell-based; conditions: HEK-293T
T2 construct: expressed in transfected cells; host or cells: HEK293T

human KOR (Gustducin) [4] = target: T3, human KOR (Gustducin) (Homo sapiens, UniProt P41145, N322A); assay: cell-based; conditions: HEK-293T
T3 construct: expressed in transfected cells; host or cells: HEK293T

human KOR (Gustducin) [5] = target: T4, human KOR (Gustducin) (Homo sapiens, UniProt P41145, D334A); assay: cell-based; conditions: HEK-293T
T4 construct: expressed in transfected cells; host or cells: HEK293T

human KOR (Gustducin) [6] = target: T5, human KOR (Gustducin) (Homo sapiens, UniProt P41145, K227A); assay: cell-based; conditions: HEK-293T
T5 construct: expressed in transfected cells; host or cells: HEK293T

human KOR (Gustducin) [7] = target: T6, human KOR (Gustducin) (Homo sapiens, UniProt P41145, D266A); assay: cell-based; conditions: HEK-293T
T6 construct: expressed in transfected cells; host or cells: HEK293T

human KOR (Gustducin) [8] = target: T7, human KOR (Gustducin) (Homo sapiens, UniProt P41145, R257A); assay: cell-based; conditions: HEK-293T
T7 construct: expressed in transfected cells; host or cells: HEK293T

human KOR (Gustducin) [9] = target: T8, human KOR (Gustducin) (Homo sapiens, UniProt P41145, L253A); assay: cell-based; conditions: HEK-293T
T8 construct: expressed in transfected cells; host or cells: HEK293T

human KOR (Gustducin) [10] = target: T9, human KOR (Gustducin) (Homo sapiens, UniProt P41145, D105A); assay: cell-based; conditions: HEK-293T
T9 construct: expressed in transfected cells; host or cells: HEK293T

human KOR (Gustducin) [11] = target: T10, human KOR (Gustducin) (Homo sapiens, UniProt P41145, Y139L); assay: cell-based; conditions: HEK-293T
T10 construct: expressed in transfected cells; host or cells: HEK293T

MOR = target: T11, MOR (Homo sapiens, UniProt P35372); assay: Radioligand competition binding (3H-Diprenorphine)
T11 construct: expressed in transfected cells; host or cells: HEK293

human KOR (β-arrestin 1) [12] = target: T12, human KOR (β-arrestin 1) (Homo sapiens, UniProt P41145, K227A); assay: cell-based; conditions: HEK-293T
T12 construct: expressed in transfected cells; host or cells: HEK293T

human KOR (β-arrestin 1) [13] = target: T13, human KOR (β-arrestin 1) (Homo sapiens, UniProt P41145, D334A); assay: cell-based; conditions: HEK-293T
T13 construct: expressed in transfected cells; host or cells: HEK293T

human KOR (β-arrestin 1) [14] = target: T14, human KOR (β-arrestin 1) (Homo sapiens, UniProt P41145, R271A); assay: cell-based; conditions: HEK-293T
T14 construct: expressed in transfected cells; host or cells: HEK293T

human KOR (β-arrestin 1) [15] = target: T15, human KOR (β-arrestin 1) (Homo sapiens, UniProt P41145); assay: cell-based
T15 construct: expressed in transfected cells; host or cells: HEK293T

human KOR (β-arrestin 1) [16] = target: T16, human KOR (β-arrestin 1) (Homo sapiens, UniProt P41145, N141A); assay: cell-based; conditions: HEK-293T
T16 construct: expressed in transfected cells; host or cells: HEK293T

human KOR (β-arrestin 1) [17] = target: T17, human KOR (β-arrestin 1) (Homo sapiens, UniProt P41145, Q115N); assay: cell-based; conditions: HEK-293T
T17 construct: expressed in transfected cells; host or cells: HEK293T

human KOR (β-arrestin 1) [18] = target: T18, human KOR (β-arrestin 1) (Homo sapiens, UniProt P41145, E297A); assay: cell-based; conditions: HEK-293T
T18 construct: expressed in transfected cells; host or cells: HEK293T

human KOR (β-arrestin 1) [19] = target: T19, human KOR (β-arrestin 1) (Homo sapiens, UniProt P41145, N326A); assay: cell-based; conditions: HEK-293T
T19 construct: expressed in transfected cells; host or cells: HEK293T

human KOR (β-arrestin 1) [20] = target: T20, human KOR (β-arrestin 1) (Homo sapiens, UniProt P41145, T94V); assay: cell-based; conditions: HEK-293T
T20 construct: expressed in transfected cells; host or cells: HEK293T

human KOR (β-arrestin 1) [21] = target: T21, human KOR (β-arrestin 1) (Homo sapiens, UniProt P41145, Y320L); assay: cell-based; conditions: HEK-293T
T21 construct: expressed in transfected cells; host or cells: HEK293T

human KOR (β-arrestin 1) [22] = target: T22, human KOR (β-arrestin 1) (Homo sapiens, UniProt P41145, N322A); assay: cell-based; conditions: HEK-293T
T22 construct: expressed in transfected cells; host or cells: HEK293T

human KOR (β-arrestin 1) [23] = target: T23, human KOR (β-arrestin 1) (Homo sapiens, UniProt P41145, R274A); assay: cell-based; conditions: HEK-293T
T23 construct: expressed in transfected cells; host or cells: HEK293T

human KOR (β-arrestin 1) [24] = target: T24, human KOR (β-arrestin 1) (Homo sapiens, UniProt P41145, G319L); assay: cell-based; conditions: HEK-293T
T24 construct: expressed in transfected cells; host or cells: HEK293T

human KOR (β-arrestin 1) [25] = target: T25, human KOR (β-arrestin 1) (Homo sapiens, UniProt P41145, Y139L); assay: cell-based; conditions: HEK-293T
T25 construct: expressed in transfected cells; host or cells: HEK293T

human KOR (β-arrestin 1) [26] = target: T26, human KOR (β-arrestin 1) (Homo sapiens, UniProt P41145, D105A); assay: cell-based; conditions: HEK-293T
T26 construct: expressed in transfected cells; host or cells: HEK293T

human KOR (β-arrestin 1) [27] = target: T27, human KOR (β-arrestin 1) (Homo sapiens, UniProt P41145, L253A); assay: cell-based; conditions: HEK-293T
T27 construct: expressed in transfected cells; host or cells: HEK293T

human KOR (β-arrestin 1) [28] = target: T28, human KOR (β-arrestin 1) (Homo sapiens, UniProt P41145, R170A); assay: cell-based; conditions: HEK-293T
T28 construct: expressed in transfected cells; host or cells: HEK293T

human KOR (β-arrestin 1) [29] = target: T29, human KOR (β-arrestin 1) (Homo sapiens, UniProt P41145, D155A); assay: cell-based; conditions: HEK-293T
T29 construct: expressed in transfected cells; host or cells: HEK293T

human KOR (β-arrestin 1) [30] = target: T30, human KOR (β-arrestin 1) (Homo sapiens, UniProt P41145, K200A); assay: cell-based; conditions: HEK-293T
T30 construct: expressed in transfected cells; host or cells: HEK293T

human KOR (β-arrestin 1) [31] = target: T31, human KOR (β-arrestin 1) (Homo sapiens, UniProt P41145, F283A); assay: cell-based; conditions: HEK-293T
T31 construct: expressed in transfected cells; host or cells: HEK293T

human KOR (β-arrestin 1) [32] = target: T32, human KOR (β-arrestin 1) (Homo sapiens, UniProt P41145, F114L); assay: cell-based; conditions: HEK-293T
T32 construct: expressed in transfected cells; host or cells: HEK293T

human KOR (β-arrestin 1) [33] = target: T33, human KOR (β-arrestin 1) (Homo sapiens, UniProt P41145, R257A); assay: cell-based; conditions: HEK-293T
T33 construct: expressed in transfected cells; host or cells: HEK293T

[34] = HEK-293T, read-out: βArrestin1 (Figure 5A concentration-response, replicate values)

T15 sequence (P41145 whole entry): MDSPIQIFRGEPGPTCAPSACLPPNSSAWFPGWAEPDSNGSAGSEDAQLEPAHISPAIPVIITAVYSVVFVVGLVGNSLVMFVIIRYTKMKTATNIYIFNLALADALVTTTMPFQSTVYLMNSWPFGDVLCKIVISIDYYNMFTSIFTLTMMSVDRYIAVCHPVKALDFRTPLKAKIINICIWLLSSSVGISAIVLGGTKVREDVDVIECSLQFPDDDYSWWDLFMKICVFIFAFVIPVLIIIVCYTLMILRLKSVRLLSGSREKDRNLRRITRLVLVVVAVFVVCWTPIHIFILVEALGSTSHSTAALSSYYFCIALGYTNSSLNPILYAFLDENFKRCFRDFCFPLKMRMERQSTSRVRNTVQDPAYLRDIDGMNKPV
T14 sequence (P41145 whole entry R271A): as the sequence (P41145 whole entry) above, with R271A counted along it
T26 sequence (P41145 whole entry D105A): as the sequence (P41145 whole entry) above, with D105A counted along it
T9 sequence (P41145 whole entry D105A): as the sequence (P41145 whole entry) above, with D105A counted along it
T12 sequence (P41145 whole entry K227A): as the sequence (P41145 whole entry) above, with K227A counted along it
T5 sequence (P41145 whole entry K227A): as the sequence (P41145 whole entry) above, with K227A counted along it
T27 sequence (P41145 whole entry L253A): as the sequence (P41145 whole entry) above, with L253A counted along it
T8 sequence (P41145 whole entry L253A): as the sequence (P41145 whole entry) above, with L253A counted along it
T10 sequence (P41145 whole entry Y139L): as the sequence (P41145 whole entry) above, with Y139L counted along it
T25 sequence (P41145 whole entry Y139L): as the sequence (P41145 whole entry) above, with Y139L counted along it
T11 sequence (P35372 whole entry): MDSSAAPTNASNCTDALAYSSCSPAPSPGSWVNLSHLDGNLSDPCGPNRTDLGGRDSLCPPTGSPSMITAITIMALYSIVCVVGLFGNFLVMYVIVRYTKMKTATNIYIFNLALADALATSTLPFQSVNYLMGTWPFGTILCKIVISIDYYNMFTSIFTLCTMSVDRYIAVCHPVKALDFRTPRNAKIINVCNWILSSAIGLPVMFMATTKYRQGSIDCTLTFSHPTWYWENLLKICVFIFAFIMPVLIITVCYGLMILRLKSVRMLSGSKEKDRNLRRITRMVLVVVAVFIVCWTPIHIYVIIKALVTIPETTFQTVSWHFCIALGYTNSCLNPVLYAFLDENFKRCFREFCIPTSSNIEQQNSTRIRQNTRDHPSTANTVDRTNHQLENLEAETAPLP
T32 sequence (P41145 whole entry F114L): as the sequence (P41145 whole entry) above, with F114L counted along it
T20 sequence (P41145 whole entry T94V): as the sequence (P41145 whole entry) above, with T94V counted along it
T2 sequence (P41145 whole entry T94V): as the sequence (P41145 whole entry) above, with T94V counted along it
T28 sequence (P41145 whole entry R170A): as the sequence (P41145 whole entry) above, with R170A counted along it
T29 sequence (P41145 whole entry D155A): as the sequence (P41145 whole entry) above, with D155A counted along it
T18 sequence (P41145 whole entry E297A): as the sequence (P41145 whole entry) above, with E297A counted along it
T1 sequence (P41145 whole entry E297A): as the sequence (P41145 whole entry) above, with E297A counted along it
T6 sequence (P41145 whole entry D266A): as the sequence (P41145 whole entry) above, with D266A counted along it
T23 sequence (P41145 whole entry R274A): as the sequence (P41145 whole entry) above, with R274A counted along it
T17 sequence (P41145 whole entry Q115N): as the sequence (P41145 whole entry) above, with Q115N counted along it
T19 sequence (P41145 whole entry N326A): as the sequence (P41145 whole entry) above, with N326A counted along it
T16 sequence (P41145 whole entry N141A): as the sequence (P41145 whole entry) above, with N141A counted along it
T24 sequence (P41145 whole entry G319L): as the sequence (P41145 whole entry) above, with G319L counted along it
T13 sequence (P41145 whole entry D334A): as the sequence (P41145 whole entry) above, with D334A counted along it
T4 sequence (P41145 whole entry D334A): as the sequence (P41145 whole entry) above, with D334A counted along it
T31 sequence (P41145 whole entry F283A): as the sequence (P41145 whole entry) above, with F283A counted along it
T30 sequence (P41145 whole entry K200A): as the sequence (P41145 whole entry) above, with K200A counted along it
T7 sequence (P41145 whole entry R257A): as the sequence (P41145 whole entry) above, with R257A counted along it
T33 sequence (P41145 whole entry R257A): as the sequence (P41145 whole entry) above, with R257A counted along it
T22 sequence (P41145 whole entry N322A): as the sequence (P41145 whole entry) above, with N322A counted along it
T3 sequence (P41145 whole entry N322A): as the sequence (P41145 whole entry) above, with N322A counted along it
T21 sequence (P41145 whole entry Y320L): as the sequence (P41145 whole entry) above, with Y320L counted along it

What does the source list for CN(C(=O)/C=C/c1ccoc1)[C@@H]1CC[C@@]2(O)[C@H]3Cc4ccc(O)c5c4[C@@]2(CCN3CC2CC2)[C@H]1O5 [Nalfurafine, nalfurafine]?
side effects ([1]; high dose 20-50 μg/Kg): starts causing motor incoordination, sedation, and aversion effects; side effects (dysphoria, sedation, hallucinations) ([1]; low dose 2.5-20 μg/Kg): does not produce typical; Emax (human KOR (Gustducin) [2]): 73.1%; Emax (human KOR (Gustducin) [3]): 73.6%; Emax (human KOR (Gustducin) [4]): 96.6%; Emax (human KOR (Gustducin) [5]): 100%; Emax (human KOR (Gustducin) [6]): 85.5%; Emax (human KOR (Gustducin) [7]): 62.6%; Emax (human KOR (Gustducin) [8]): 53.8%; Emax (human KOR (Gustducin) [9]): 61.4%; Emax (human KOR (Gustducin) [10]): 70.2%; Emax (human KOR (Gustducin) [11]): 55.3%; Ki (MOR): 13.2 nM; Emax (human KOR (β-arrestin 1) [12]): 77.5%; Emax (human KOR (β-arrestin 1) [13]): 71.1%; Emax (human KOR (β-arrestin 1) [14]): 101%; Emax% (human KOR (β-arrestin 1) [15]): 52.03% and 50%; Emax (human KOR (β-arrestin 1) [15]; HEK-293T): 52.1%; activation at 0.01 µM (human KOR (β-arrestin 1) [15]; [34]): 47.1%; activation at 0.1 µM (human KOR (β-arrestin 1) [15]; [34]): 49.9%; activation at 1 µM (human KOR (β-arrestin 1) [15]; [34]): 52.7%; Emax (human KOR (β-arrestin 1) [16]): 91.3%; Emax (human KOR (β-arrestin 1) [17]): 62.2%; Emax (human KOR (β-arrestin 1) [18]): 101%; Emax (human KOR (β-arrestin 1) [19]): 65.2%; Emax (human KOR (β-arrestin 1) [20]): 73.2%; Emax (human KOR (β-arrestin 1) [21]): 83.6%; Emax (human KOR (β-arrestin 1) [22]): 101%; Emax (human KOR (β-arrestin 1) [23]): 78.7%; Emax (human KOR (β-arrestin 1) [24]): 60.4%; Emax (human KOR (β-arrestin 1) [25]): 92.8%; Emax (human KOR (β-arrestin 1) [26]): 91.6%; Emax (human KOR (β-arrestin 1) [27]): 94.5%; Emax (human KOR (β-arrestin 1) [28]): 81.8%; Emax (human KOR (β-arrestin 1) [29]): 86.5%; Emax (human KOR (β-arrestin 1) [30]): 81.3%; Emax (human KOR (β-arrestin 1) [31]): 100%; Emax (human KOR (β-arrestin 1) [32]): 33.9%; Emax (human KOR (β-arrestin 1) [33]): 103%
